Reference: patent US10774042B2, “Crystalline forms of apremilast” (ZAKLADY FARMACEUTYCZNE POLPHARMA SA, priority 2016, dated 2020)

Columns and labels:
Format in all cases: physicochemical
[1] = Water solubility of crystalline forms; settings: for Water solubility: Form B value according to literature findings and experimental data, Form M at the same conditions
[2] = Moisture sorption analysis (Dynamic Vapour Sorption); settings: result in words
Description: Water Vapour Sorption isotherms were obtained using a Dynamic Vapour Sorption apparatus (model: DVS—Advantage, supplier: Surface Measurement Systems Limited). The DVS apparatus consists of an ultra-microbalance housed inside a temperature-controlled cabinet. The sample was placed into a DVS sample pan under a stream of nitrogen (200 sccm) at 25° C. The humidity was increased ramping in 10% RH (relative humidity) steps from close to 0% RH to 90% RH (sorption phase). Next the humidity was decreased in a similar fashion for the desorption phase. The sample was held at each RH step for mass stabilization (dm/dt 0.02%/min) but not less than 10 minutes. Two cycles of sorption and desorption were investigated.

[3] = Dissolution studies of tablets, paddle method; settings: at 30 minutes
Description: Dissolution studies were performed using a Hanson SR8PLUS dissolution apparatus, according to European Pharmacopoeia apparatus, paddle method. The samples were tested in 900 mL pH 6.8 with 0.3% SLS at 37.0° C.+/−0.5° C. and the paddle rotation speed was set at 75 rpm. Dissolution study was conducted for 60 min and samples were analyzed using HPLC method.

Structure (SMILES)	Water solubility [1] [µg/mL]	Hygroscopicity [2]	Water solubility of Form M relative to Form B (times greater) ([1]; same conditions) [times]	Stability with respect to humidity [2]	Higher dissolution rate compared with prior art Form B [3]
CCOc1cc([C@@H](CS(C)(=O)=O)N2C(=O)c3cccc(NC(C)=O)c3C2=O)ccc1OC [Form B, N-[2-[(1S)-1-(3-ethoxy-4-methoxyphenyl)-2-(methylsulfonyl)ethyl]-1,3-dioxo-2,3-dihydro-1H-isoindol-4-yl]acetamide, reference compound]	7 to 12				
CCOc1cc([C@@H](CS(C)(=O)=O)N2C(=O)c3cccc(NC(C)=O)c3C2=O)ccc1OC [Form M, N-[2-[(1S)-1-(3-ethoxy-4-methoxyphenyl)-2-(methylsulfonyl)ethyl]-1,3-dioxo-2,3-dihydro-1H-isoindol-4-yl]acetamide]	29	substantially non-hygroscopic	~3		
CCOc1cc([C@@H](CS(C)(=O)=O)N2C(=O)c3cccc(NC(C)=O)c3C2=O)ccc1OC [Form N, N-[2-[(1S)-1-(3-ethoxy-4-methoxyphenyl)-2-(methylsulfonyl)ethyl]-1,3-dioxo-2,3-dihydro-1H-isoindol-4-yl]acetamide]		substantially non-hygroscopic		stable with respect to humidity	more than 50%
